Test results as given in patent US20250178998A1, “CRYSTAL FORM OF CYCLOHEXENONE COMPOUND” (TAIHO PHARMACEUTICAL CO., LTD., priority 2022, published 2025).

Legend:
[1] = Dynamic moisture adsorption/desorption test; format: physicochemical; conditions: at 95% relative humidity, 25° C.
Experimental: The type I crystal, type II crystal, and type III crystal of compound (I) obtained in Examples 1 to 3 were subjected to a moisture adsorption/desorption test after storage for 4 weeks.
The moisture adsorption/desorption test was performed according to the following conditions.
About 10 mg of the sample was filled in a dedicated quartz holder, and the weight of the sample at each humidity was continuously measured and recorded under the following conditions. The handling of the apparatus, including data processing, was in accordance with the method and procedure as instructed for each apparatus.
Apparatus: VTI-SA+ (TA Instruments, Inc.)
Drying temperature: 25° C.
Temperature increase rate: 1° C./min
Measurement temperature: 25° C.
Relative humidity program: Increase by 5% RH from 5% RH to 95% RH and decrease by 5% RH from 95% RH to 5% RH

[2] = Solid stability test (HPLC purity after storage); format: physicochemical; conditions: for Change in purity / Change in purity (in words) / Increase in related substances / Purity after 4 weeks of storage under sealed conditions at 25° C.: 25° C./60% RH (closed system), 4 weeks; for Purity after 4 weeks of storage under sealed conditions at 25° C. / Purity of compound (I) before storage: HPLC
Experimental: The solid stability of the type I crystal, type II crystal, and type III crystal of compound (I) obtained in Examples 1 to 3 was evaluated after storage for 4 weeks.
Storage condition: 25° C./60% RH (closed system)
Storage amount: about 25 mg
Storage container: glass bottle
Changes in the purity of compound (I) and in the amounts of related substances (the amounts of substances detected other than compound (I)) were analyzed by weighing about 1 mg of the sample, dissolving it in 2 mL of acetonitrile, and accurately measuring 5 μL of this liquid for analysis by HPLC according to the following method. The handling of the apparatus, including data processing, was in accordance with the method and procedure as instructed for each apparatus.
Column: YMC-Triart C8 (4.6×150 mm, 3 μm), produced by YMC Co., Ltd.
Column temperature: 40° C.
Sample concentration: 0.5 mg/mL
Mobile phase A: Liquid mixture of water/acetonitrile (1:1 v/v)
Mobile phase B: Acetonitrile

ND3 neuronal cell line = experiment: Nerve growth stimulation effect: neurite bearing assay and neurite length assay; format: cell-based; conditions: for Neurite length per cell (relative activity, maximum activity of compound (I) = 1) / Number of cells (relative cell number, DMSO well = 1) / Proportion of neurite-bearing cells (relative activity, maximum activity of compound (I) = 1): 6 hours
Experimental: To evaluate the nerve growth stimulation effect, neurite bearing assay (proportion of neurite-bearing cells) and neurite length assay (neurite length) were analyzed with reference to the method of Topalli et al. (Brain Research 1030 (2004), pp. 116-124).
An ND3 neuronal cell line (European Collection of Authenticated Cell Cultures) was seeded in a DMEM medium containing 10% fetal bovine serum (0.6×10^4 cells/1 mL) in a 24-well plate. 24 hours later, the medium of seeded cells was removed, and a solution in which compound (I) that was sequentially diluted in dimethyl sulfoxide (DMSO) was adjusted in DMEM containing 0.1% bovine serum albumin so that the DMSO final concentration was 0.1%, was added to cells (evaluation performed in duplicate). After six hours from the addition, the proportion of neurite-bearing cells (the number of cells having a neurite longer than the diameter of the cell body/number of total cells), and the neurite length per cell were analyzed. Further, a test was performed in the same manner as described above, except that compound A was used in place of compound (I). The number of total cells, proportion of neurite-bearing cells, and neurite length per cell were analyzed using a MetaMorph Neurite Outgrowth Application Module (Molecular Devices Japan K. K.). The number of cells was defined as the relative cell number, taking the number of cells per well containing DMSO as 1 (Tables 4 and 5). […] The test was conducted multiple times, and the average value was shown. Data with a number of cells of 0.5 or more was used. Accordingly, if the number of cells was less than 0.5, the neurite length per cell and the proportion of neurite-bearing cells were defined as […]

[3] = Pharmacokinetics after oral administration to rats; format: in vivo, rat (Crl: CD (SD)); conditions: male rat, 10 mg/kg
Experimental: The required amount of compound (I) was weighed, and a drug suspension was prepared in 0.5% hydroxypropyl methylcellulose. The number of rats in each group was two, and each drug suspension was administered orally to each male rat (Crl: CD (SD)) using an oral sonde (the dose of the compound was 10 mg/kg). At each blood collection point (0.5, 1, 2, 4, 8, and 24 hours after administration), blood was collected from the jugular vein using a syringe and a needle (the anticoagulant was heparin sodium). The collected blood was centrifuged (13000 rpm, 2 min, 4° C.) to prepare plasma, followed by deproteinization. Thereafter, the concentration of the compound in the plasma was measured by LC/MS/MS (LCMS-8040 (Shimadzu Corporation) or API 4000 (AB Sciex), LC: 30-A and 20-A series (Shimadzu Corporation) or Waters Acquity (Waters Corporation)). A drug suspension was prepared and administered, and the concentration of the compound was measured, in the same manner as described above, except that compound A was used in place of compound (I).

[4] = test system: streptozotocin-induced diabetes mellitus (DM) rat model; experiment: Drug efficacy in diabetes mellitus (DM) rat model, bladder function by cystometry; format: in vivo, SD rats; conditions: STZ DM rats, oral twice a day for 4 weeks
Experimental: To examine the effect of the compound in a diabetes mellitus model, bladder function was analyzed by cystometry based on the method of Saitoh et al. (European Journal of Pharmacology 501 (2004) 143-149).
A streptozotocin (STZ) solution obtained by dissolving STZ in a citrate buffer solution (0.1 M citric acid, pH of 4.2) to a concentration of 32.5 mg/mL was prepared, and administered intraperitoneally (65 mg/kg) to SD rats to induce DM models. The same procedure was performed on sham rats except that a citrate buffer solution was used in place of the STZ solution.
On the day after the model production and 4 weeks later, a blood sample was taken from the tail vein with the rats awake to measure the blood glucose level. […] Individuals with a blood glucose level of 300 mg/dL or more on the day after the production of the model and 4 weeks later were determined to be established DM models and used in subsequent operations. […]
A pressure transducer (DX-360, Nihon Kohden Kogyo Co., Ltd.) and an infusion pump (TE-331S, Terumo Corporation) were connected via a three-way valve to the other end of the catheter inserted into the bladder. […] The volume of urination was automatically measured using an electronic balance (GX-200, A&D Company Limited) set directly under the holding cage, and recorded continuously on a computer using a PowerLab (sampling rate: 20/sec). […]

Row | SMILES | Moisture absorption [1] | Change in purity [2] | Change in purity (in words) [2] | Increase in related substances [2] | Purity after 4 weeks of storage under sealed conditions at 25° C. [2] [%] | Purity of compound (I) before storage [2] [%] | Number of cells (relative cell number, DMSO well = 1) (ND3 neuronal cell line; 1 μM) | Number of cells (relative cell number, DMSO well = 1) (ND3 neuronal cell line; 3 μM) | Number of cells (relative cell number, DMSO well = 1) (ND3 neuronal cell line; 5 μM) | Number of cells (relative cell number, DMSO well = 1) (ND3 neuronal cell line; 10 μM) | Number of cells (relative cell number, DMSO well = 1) (ND3 neuronal cell line; 30 μM) | also measured
1 | COCCCCCCCCCCCCCCCC1=C(C)C(=O)CCC1(C)C [Type I crystal, 3-(15-methoxypentadecyl)-2,4,4-trimethylcyclohex-2-en-1-one] | almost no moisture absorption | +0.01% | almost no change in purity | almost no increase in related substances | 99.71 | 99.70 |  |  |  |  |  | 
2 | CC1=C(CCCCCCCCCCCCCCCO)C(C)(C)CCC1=O [Compound A, 3-(15-Hydroxypentadecyl)-2,4,4-trimethylcyclohex-2-en-1-one] |  |  |  |  |  |  | 1.03 | 0.92 | 0.92 | 1.0 | 0.19 | Neurite length per cell (relative activity, maximum activity of compound (I) = 1) (ND3 neuronal cell line; 1 μM): 0.26; Proportion of neurite-bearing cells (relative activity, maximum activity of compound (I) = 1) (ND3 neuronal cell line; 1 μM): 0.24; Neurite length per cell (relative activity, maximum activity of compound (I) = 1) (ND3 neuronal cell line; 3 μM): 0.33; Proportion of neurite-bearing cells (relative activity, maximum activity of compound (I) = 1) (ND3 neuronal cell line; 3 μM): 0.34; Neurite length per cell (relative activity, maximum activity of compound (I) = 1) (ND3 neuronal cell line; 5 μM): 0.39; Proportion of neurite-bearing cells (relative activity, maximum activity of compound (I) = 1) (ND3 neuronal cell line; 5 μM): 0.41; Neurite length per cell (relative activity, maximum activity of compound (I) = 1) (ND3 neuronal cell line; 10 μM): 0.71; Proportion of neurite-bearing cells (relative activity, maximum activity of compound (I) = 1) (ND3 neuronal cell line; 10 μM): 0.70
3 | COCCCCCCCCCCCCCCCC1=C(C)C(=O)CCC1(C)C [Compound (I), 3-(15-methoxypentadecyl)-2,4,4-trimethylcyclohex-2-en-1-one] |  |  |  |  |  |  | 1.06 | 1.01 | 0.94 | 0.92 | 0.96 | Improvement in area under the curve (AUC) as compared to compound A [3]: ≥ 1900 times; Improvement in maximum blood concentration Cmax as compared to compound A [3]: ≥ 1100 times; Number of cells (relative cell number, DMSO well = 1) (ND3 neuronal cell line; 100 μM): 0.92; Nerve growth stimulation effect compared to compound A (ND3 neuronal cell line; Table 5): excellent nerve growth stimulation effect; Number of relative cells (ND3 neuronal cell line; added in an amount of 1 to 100 μM): ≥ 0.5; Drug efficacy (residual urine volume, FIG. 10) as compared to compound A [4]: remarkable drug efficacy

Now from value to compound, other results behind:

Row | Moisture absorption [1] | Change in purity [2] | Change in purity (in words) [2] | Increase in related substances [2] | Purity after 4 weeks of storage under sealed conditions at 25° C. [2] [%] | Purity of compound (I) before storage [2] [%] | SMILES | Number of cells (relative cell number, DMSO well = 1) (ND3 neuronal cell line; 1 μM) | Number of cells (relative cell number, DMSO well = 1) (ND3 neuronal cell line; 3 μM) | Number of cells (relative cell number, DMSO well = 1) (ND3 neuronal cell line; 5 μM) | Number of cells (relative cell number, DMSO well = 1) (ND3 neuronal cell line; 10 μM) | Number of cells (relative cell number, DMSO well = 1) (ND3 neuronal cell line; 30 μM) | also measured
4 | almost no moisture absorption |  | almost no change in purity | almost no increase in related substances | 99.77 | 99.77 | COCCCCCCCCCCCCCCCC1=C(C)C(=O)CCC1(C)C [Type III crystal, 3-(15-methoxypentadecyl)-2,4,4-trimethylcyclohex-2-en-1-one] |  |  |  |  |  | 
5 | almost no moisture absorption | −0.01% | almost no change in purity | almost no increase in related substances | 99.72 | 99.73 | COCCCCCCCCCCCCCCCC1=C(C)C(=O)CCC1(C)C [Type II crystal, 3-(15-methoxypentadecyl)-2,4,4-trimethylcyclohex-2-en-1-one] |  |  |  |  |  | 
